Reference: US20250161338A1, “Compounds for Anti-aging Intervention” (AGENCY FOR SCIENCE, TECHNOLOGY AND RESEARCH, priority 2022, published 2025)
Entries after “also recorded” stand apart in the source; their conditions may differ.

Columns and labels:
[1] = tested on: wild-type Saccharomyces cerevisiae CEN.PK113-7D yeast strain; test: Chronological lifespan analysis in yeast (PI, outgrowth, spotting); format: cell-based
Procedure: (§1) Yeast strain was recovered from frozen glycerol stock at 30° C. on YPD agar medium. Yeast was left to propagate in SD medium overnight at 30° C. with shaking at 220 revolutions per minute (rpm). Cells propagated overnight were diluted to a starting optical density at 600 nm (OD600) of approximately 0.2 in fresh SD medium to begin the chronological lifespan (CLS) experiments.
CLS experiments were performed in 96-well plates with 200 μL yeast culture. Cellular inoculums were transferred into 96-well plates containing serially double-diluted concentrations (0 to 10 nM) of rapamycin. […] Cells were incubated at 30° C., and the growth was measured at different time points. The growth time point 72 hours was considered as Day 1 for the CLS assay. Cell survival was quantified at various age time points by three different approaches: (i) PI fluorescence-based method, (ii) outgrowth in YPD liquid medium, and (iii) spotting assay (FIG. 1).
Yeast cells (40 μL) from different age time points were transferred into a second 96-well plate (different to the 96-well plate in which the CLS analysis as outlined above was performed). Cells were washed and incubated in 100 μL 1×phosphate buffered saline (PBS) with propidium iodide (PI) (5 μg/mL) for 15 minutes in the dark. Positive and negative control samples were included for quantitative analysis. Positive control (cells boiled at 100° C. for 15 minutes) was PI-stained and processed in the same 96-well plate. Samples without PI-stained cells served as the negative control. After incubation, cells were washed and resuspended in 100 μL PBS. The fluorescence reading of the samples (excitation and emission wavelengths at 535 nm and 617 nm, respectively) and OD600 were measured with a microplate reader (BioTek, Winooski, Vermont, United States). The fluorescence intensity of each sample was normalized with OD600. The background fluorescence signal of the unstained negative sample was subtracted from the normalized fluorescence intensity of each sample. The obtained fluorescence intensity of the positive control (boiled dead cells) was considered 0% cell survival. Cell death was validated by allowing the boiled dead cells to grow in medium. Cell survival at different age time points of samples were calculated by normalizing the fluorescence intensity with positive control sample (boiled cells).
Yeast stationary culture (3 μL) of different age time points were transferred to a second 96-well plate, containing 200 μL YPD medium, and incubated for 24 hours at 30° C. Outgrowth (OD600) of aged cells was measured by the microplate reader. Quantification of cell survival for each age point was determined as relative to Day 1 (considered 100% cell survival). This quantification was performed by using the formula,
Yeast stationary culture (3 μL) of different age time points were spotted onto a YPD agar plate and incubated for 48 hours at 30° C. The outgrowth of aged cells on the YPD agar plate was photographed using the Bio-Rad GelDoc Imaging System (Bio-Rad, Hercules, California, United States).

[2] = tested on: wild-type Saccharomyces cerevisiae CEN.PK113-7D yeast strain; test: Yeast cell growth (OD600) in SD medium; format: cell-based; settings: 0 to 8 mM; 24, 48 and 72 hours
Procedure: as §1
CLS experiments were performed in 96-well plates with 200 μL yeast culture. Cellular inoculums were transferred into 96-well plates containing serially double-diluted concentrations (0 to 10 nM) of rapamycin. Cellular inoculum was transferred into 96-well plates containing serially double-diluted concentrations (0 to 8 mM) of 2,5-anhydro-D-mannitol, D-fructose, D-mannitol, D-maltose, and D-sorbitol in SD medium. Cells were incubated at 30° C., and the growth was measured at different time points. The growth time point 72 hours was considered as Day 1 for the CLS assay. Cell survival was quantified at various age time points by three different approaches: (i) PI fluorescence-based method, (ii) outgrowth in YPD liquid medium, and (iii) spotting assay (FIG. 1).
Firstly, the effect of 2,5-AM on cell growth was determined. Yeast cells were incubated with varying concentrations of 2,5-AM in the SD medium. Cell growth was measured at different time points (24 hours, 48 hours, and 72 hours). […] Then, the survival of chronologically aged cells supplemented with different concentrations of 2,5-AM was measured using the PI fluorescence method. At each chronological age point, a 3 μL culture was transferred to a second 96-well plate containing 200 μL YPD medium. The 72-hour growth culture was considered Day 1 for the CLS analysis. The viability fraction was calculated, and a survival graph was plotted for different chronological age time points (FIG. 5). […] The survival of aged cells supplemented with 2,5-AM (4 mM and 8 mM) on Day 4 was approximately 80%. However, the survival of aged cells without 2,5-AM was approximately 50%. On Day 7, survival of 2,5-AM supplemented aged cells was approximately 75%. However, the survival of aged cells without 2,5-AM was reduced to less than 20%.
Firstly, the effect of fructose, mannitol, maltose, and sorbitol on cell growth was tested. Yeast cells were incubated with various concentrations of fructose, mannitol, maltose, and sorbitol similar to 2,5-AM in the SD medium. […] Next, the survival of chronologically aged cells on day 1, day 7, day 14, and day 21 was measured. […] Aged cells supplemented with 2,5-AM (8 mM) survived (approximately 65%) on Day 21. However, the survival of aged cells without 2,5-AM supplementation was less than 10%.

[3] = tested on: wild-type Saccharomyces cerevisiae CEN.PK113-7D yeast strain; settings: very high concentrations (18% equivalent to 1M); by increasing osmolarity; cited from earlier work
[4] = tested on: prototrophic yeast strain (CEN.PK113-7D); test: Propidium iodide fluorescence-based CLS method in yeast (incl. high-throughput screening); format: cell-based, Saccharomyces cerevisiae; settings: for Yeast CLS increase: Yes/No call of the screen;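 for PI intensity: untreated reference is eight DMSO and water control wells per plate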
Outline: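 CEN.PK113-7D aged in SD medium at 30 °C with compounds (rapamycin 0–10 nM; sugars 0–8 mM; screen at single concentrations). At each age point cells were stained with 5 μg/mL PI for 15 min; fluorescence was normalized to OD600, background-subtracted, and survival scaled against boiled-cell control.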

[5] = tested on: prototrophic yeast strain (CEN.PK113-7D); test: Yeast outgrowth in YPD liquid medium (CLS of aged cells); format: cell-based, Saccharomyces cerevisiae; settings: age point day 14
Outline: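 Cultures aged at 30 °C in SD medium with double-diluted rapamycin (0–10 nM) or sugars/polyols (0–8 mM). On day 14, 3 µL of culture was transferred into 200 µL YPD and outgrowth read as OD600. Survival expressed relative to day 1 outgrowth (100%).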

human cells = test: High-throughput chemical screening using the PI method in human cells; format: cell-based; settings: Day 6; library tested at 1 μM; controls ranged from 4.22 to 4.53; lower = extended CLS
Procedure: The stock solution of rapamycin, hemin, 5-fluorouracil, atorvastatin, and methotrexate was prepared in DMSO, followed by serial dilution to form various concentrations used in the experiment. The final DMSO concentration was kept at 0.05% in all experiments. The stock solution of 2,5-anhydro-D-mannitol was prepared in D10 medium. The chemical library used in screening were tested at 1 μM concentrations. Controls used were the same as the solvent applied, DMSO or water.
The assay was performed by preparing the cells with PI (2 μg/mL or 5 μg/mL) in a D10 medium. 200 μL culture (8×10^4 cells) was seeded per well in a 96-well plate with different concentrations of the anti-aging drug (rapamycin, 2,5-AM, plicamycin, copanlisib dihydrochloride, nedaplatin, hemin, 5-fluorouracil, methotrexate, or atorvastatin) and no treatment control (DMSO). The culture plate was kept away from light throughout the experiment and incubated at 37° C. with 5% CO2. At different age time points, reading was taken with a Synergy MX microplate reader (BioTek, Winooski, Vermont, United States) at 535 nm excitation and 617 nm emission.
The PI method was used to identify additional novel anti-aging compounds that prolong CLS. A total of 162 compounds were screened, including some FDA-approved drugs and natural products. The log10 values of the PI intensity for the various control samples ranged from 4.22 to 4.53.

[6] = 0 to 8 mM in SD medium, up to day 21
[7] = concentration tested 100 μM, solvent DMSO or water, chronological age point Day 7 (72 h growth = Day 1), lower = more survival
[8] = concentration tested 100 μM, OD600 nm after 24 h in YPD at 30° C.
[9] = concentration tested 30 μg/mL, solvent water, age point Day 7
[10] = concentration tested 30 μg/mL, OD600 nm after 24 h in YPD

Row | Compound | Yeast CLS increase ([4]; concentration tested 100 μM) | PI intensity [4, 7] | Outgrowth [5, 8] | further results
1 | O=C(CO)[C@@H](O)[C@H](O)[C@H](O)CO [fructose, D-fructose] | – | – | – | effect on yeast CLS [1, 6]: did not extend the lifespan of the yeast; cell growth [2]: reached growth saturation after 24 hours
2 | OC[C@H]1O[C@H](O[C@H]2[C@H](O)[C@@H](O)[C@H](O)O[C@@H]2CO)[C@H](O)[C@@H](O)[C@@H]1O [maltose, D-maltose] | – | – | – | effect on yeast CLS [1, 6]: did not extend the lifespan of the yeast; cell growth [2]: reached growth saturation after 24 hours
3 | OC[C@@H](O)[C@@H](O)[C@H](O)[C@H](O)CO [mannitol, D-mannitol] | – | – | – | effect on yeast CLS [1, 6]: did not extend the lifespan of the yeast; cell growth [2]: reached growth saturation after 24 hours
4 | OC[C@@H](O)[C@@H](O)[C@H](O)[C@@H](O)CO [sorbitol, D-sorbitol] | – | – | – | effect on yeast CLS [1, 6]: did not extend the lifespan of the yeast; also recorded: unable to increase the CLS; effect on yeast CLS ([1]; very high concentrations, between 0.5 and 1 M): increased the CLS of yeast; effect on yeast CLS (known) [3]: increase the CLS of yeast cells; cell growth [2]: reached growth saturation after 24 hours
5 | CC(=O)O[C@H]1CC[C@H]2[C@@H]3CCc4cc(O)ccc4[C@H]3CC[C@]12C [β-Estradiol 17-acetate] | Yes | 34,621.0 | 0.5 | –
6 | CC1(C)CCC2=C(O1)c1ccccc1C(=O)C2=O [β-Lapachone] | No | 67,892.9 | 0.1 | –
7 | Amarogentin | No | 70,083.5 | 0.1 | –
8 | Aprotinin | No | 70,144.6 | 0.1 | –
9 | Catechin | No | 63,589.5 | 0.1 | –
10 | Chondroitin (sulfate) | – | – | – | Yeast CLS increase ([4]; concentration tested 30 μg/mL): No; PI intensity [4, 9]: 75,572.6; Outgrowth [5, 10]: 0.1
11 | Cisatracurium (besylate) [reference compound] | No | 75,862.3 | 0.1 | –
12 | Escin | No | 70,495.1 | 0.1 | –
13 | Estramustine (phosphate sodium) [reference compound] | No | 77,514.0 | 0.2 | –
14 | Estrone sulfate (potassium) | No | 54,751.8 | 0.1 | –
15 | Gentamicin (sulfate) [reference compound] | – | – | – | Yeast CLS increase ([4]; concentration tested 30 μg/mL): No; PI intensity [4, 9]: 73,296.2; Outgrowth [5, 10]: 0.1
16 | Gramicidin [reference compound] | No | 79,922.3 | 0.1 | –
17 | Heparin (Lithium salt) [reference compound] | – | – | – | Yeast CLS increase ([4]; concentration tested 30 μg/mL): No; PI intensity [4, 9]: 77,829.1; Outgrowth [5, 10]: 0.1
18 | Heparin (sodium salt) (MW 15 kDa) [reference compound] | – | – | – | Yeast CLS increase ([4]; concentration tested 30 μg/mL): No; PI intensity [4, 9]: 64,969.0; Outgrowth [5, 10]: 0.1
19 | Hyaluronidase | – | – | – | Yeast CLS increase ([4]; concentration tested 30 μg/mL): No; PI intensity [4, 9]: 78,406.7; Outgrowth [5, 10]: 0.1
20 | Melanin | Yes | 39,360.1 | 1.0 | –
21 | Polidocanol [reference compound] | – | – | – | Yeast CLS increase ([4]; concentration tested 30 μg/mL): No; PI intensity [4, 9]: 74,745.5; Outgrowth [5, 10]: 0.1
22 | Schisantherin B | No | 68,765.7 | 0.1 | –
23 | Streptomycin (sulfate) [reference compound] | No | 60,638.5 | 0.1 | –
24 | Vincristine (sulfate) [reference compound] | No | 62,812.1 | 0.1 | –
25 | copanlisib dihydrochloride | – | – | – | log10 PI intensity (human cells): 3.59
26 | plicamycin | – | – | – | log10 PI intensity (human cells): 3.91
